Laboratory results reported in patent publication US5998437A, “Benzimidazole derivatives” (Otsuka Pharmaceutical Co., Ltd., priority 1995, dated 1999).

Assays:
[1] = tested on: rat A10 cells; experiment: Activity for inhibiting proliferation of rat A10 cells ([3H]-thymidine uptake); assay type: cell-based; details: A10, 1% FBS stimulation, 24 hours, read-out: Activity for inhibiting proliferation of rat A10 cells [IC50 (μM)]
Protocol: (2) Measurement of the Activity for Inhibiting Proliferation of Rat A10 Cells
(§1) Test was conducted by the modified method of N. Morisaki [Atherosclerosis, Vol. 71, (1988), pp. 165-171]. The rat A10 cells (purchased from Dainippon Pharmaceutical Co., Ltd.) were inoculated on a 24 wells immunoplate at a density of 10,000 cells/well, and were cultured in 10% FBS (fetal bovine serum) for 2 days, and in order to introduce the cells into the resting stage, the cells were further cultured in a serum-free medium for 2 days. After that, 1% FBS was added thereto for stimulating the proliferation, of the cells and at the same time, a test compound and 0.5 μCi/well of [^3 H]-thymidine were added. As to the index of synthesized amount of DNA, the quantity of [^3 H]-thymidine being uptaken by the cells was measured at the time of 24 hours after the final cultivation was started.

[2] = tested on: human fibroblast; experiment: Activity for inhibiting proliferation of the human fibroblast ([3H]-thymidine uptake); assay type: cell-based
Protocol: as §1
(3) Measurement of the Activity for Inhibiting Proliferation of the Human Fibroblast
Similar to the activity for inhibiting proliferation of rat A10 cells as mentioned above, the activity for inhibiting proliferation of the human fibroblast (purchased from Dainippon Pharmaceutical Co., Ltd.) was determined by measuring the uptake amount of [^3 H]-thymidine.

[3] = tested on: T cells; experiment: Activity for inhibiting proliferation of the T cells (mouse spleen cells, Concanavaline A); assay type: cell-based, Balb/c strain male mouse; details: T-cell, 2 days, then [3H] thymidine overnight
Protocol: (4) Measurement of the Activity for Inhibiting Proliferation of the T Cells
Test was conducted by the method as disclosed in "Current Protocol in Immunology" [Edited by Coligan, et al., (1991)] Chapter 3, page 12 (Published from Willy Interscience, Inc.). After sacrificed a Balb/c strain male mouse, the spleen was enucleated and a suspension of the spleen cells in RPMI-1640 culture medium was prepared. Said suspension was filtered through a nylon fiber mesh, and subjected to a centrifugal separation (1,200 rpm, for 5 minutes), there were added on pellet 5 ml of 0.15 M ammonium chloride, 10 mM potassium hydrogencarbonate, and 0.1 mM disodium salt of EDTA (pH 7.2) per one spleen so as to suspend the cells, and the suspension was incubated at 37° C. for 5 minutes. […] After counted the number of cells by using a hemacytometer, a suspension containing cell density of 10^6 /ml was prepared by diluting with RPMI-10 culture medium. […]
20 μCi/ml of [methyl-^3 H] thymidine was added in an amount of 10 μl/well, after further incubated overnight, by using a cell harvester the cells were recovered on the filter of the harvester. The filter was cut out from the cell harvester and put in a vial, then 5 ml of a scintillation cocktail (ACS-II) was added, and measured by using a liquid scintillation counter. […]

[4] = tested on: TPA induced inflammation; experiment: Activity for inhibiting TPA induced inflammation (ear pinna); assay type: in vivo, ICR strain female mouse; details: 1% solution, 20 μl on ear pinna 30 minutes before TPA; 4 hours after TPA coating
Protocol: (6) Determination of the Activity for Inhibiting TPA Induced Inflammation
Test was conducted by the modified method of Carlson, et al. [Agents Actions, Vol. 26, (1989), page 319]. Thus, to the ear pinna of ICR strain female mouse, 20 μl of acetone solution of 12-O-tetradecanoylphorbol-13-acetate (TPA) in the concentration of 200 μg/ml was coated to induce inflammation. The thickness of ear pinna of 4 hours after the TPA coating was measured, and difference of the last value was defined as the ear pinna inflammation. Test compound was dissolved in acetone-methanol (4:1 by v/v) to make the concentration of 1%. 20 μl of test compound solution was coated on the ear pinna 30 minutes before the TPA coating. By using compound of Example 3 as test compound, the inflammation was inhibited at the rate of 66%.

[5] = tested on: rat mesangial cells; experiment: Activity for inhibiting proliferation of rat mesangial cells (PDGF-BB, [3H]-thymidine uptake); assay type: cell-based; details: Mesangial cell, 5 ng/ml PDGF-BB, 0.5% FCS
Text: (7) Determination of the Activity for Inhibiting Proliferation of Rat Mesangial Cells
In accordance with the method of F. Jaffer, et al. [Am. J. Pathol., Vol. 135, (1989), pages 261-269], the mesangial cells were collected. Under anesthetized condition, the kidney of a rat was aseptically enucleated and the medulla renis was cut out, then the cortex renis was pressed to a sieve (120 mesh) made of stainless steel. The fraction of cortex renis passed through the sieve was put on another sieve of 200 mesh and washed with PBS (phosphate-buffered saline), the fraction being remained on the sieve was confirmed as the glomerulus. This fraction was cultured in RPMI 1640 medium [containing 15% of fetal calf serum (FCS), and 5 μg/ml of insulin] for 4 weeks. This fraction was further subcultured twice, and the remaining cells were thought of as the mesangial cells for use of this experiment.
Determination of the activity for inhibiting proliferation of rat mesangial cells was conducted in accordance with the method of M. B. Ganz, et al. [Am. […]
Thus 2×10^4 /ml of mesangial cells were inoculated on a culture plate (48 wells, each well having the capacity of 0.5 ml), and cultured with RPMI medium (containing 15% FCS) for 3 days. […] The supernatant of the culture medium was taken up, and the amount of [^3 H]-thymidine up-taken into the cells was measured by use of scintillation counter.

SMILES: O=C(Nc1ccc2c(ccn2CCCn2ccnc2)c1)c1nc2ccc(Cl)cc2n1Cc1ccccc1 [Example 3, 1-benzyl-6-chloro-2-{1-[3-(imidazol-1-yl)propyl]indol-5-ylamino-carbonyl}benzimidazole]
- IC50 [1]: 0.5 µM
- IC50 [2]: 40 nM
- IC50 [3]: 2000 nM
- Inhibition rate of TPA induced inflammation [4]: 66%
- IC50 [5]: 790 nM
